These results are taken from paper PMC5471252, “Anti-leukemia activity of a Hsp70 inhibitor and its hybrid molecules” (Scientific Reports, 2017).

Entries after “also recorded” stand apart in the source; their conditions may differ.

A word on the IC50: it is the concentration that inhibits the measured activity by half.

The subject of assay [1] is human leukemia cells (HL-60, KG-1, THP-1, U937, Jurkat and K562 cells). Briefly: MTT assay, all tested leukemia cells (summary statements). To be noted: Homo sapiens, 48 h, read-out: IC50 values, cytotoxic activities toward all the tested leukemia. As for the experimental part:
To assess anti-leukemia activity of Az, several human leukemia cells (HL-60 cells, acute myeloid leukemia; Jurkat cells, acute T-lymphocytic leukemia; KG-1 cells, acute myeloid leukemia; U937 cells, acute myeloid leukemia; THP-1 cells, acute monocytic leukemia; K562 cells, chronic myeloid leukemia) were incubated with Az for 48 h. […] An MTT assay was then performed to measure cell viabilities.
(§1) Cells were exposed to each compound (a HCl salt form) at various concentrations for indicated time periods (24 or 48 h) in culture media. MTT assays were conducted according to known procedures. The absorbance at 570 nm was determined by employing a microplate reader (TECAN, Infinite® 200 PRO).

The test system of assay [2] is Hsp70 level in HL-60 and K562 cells. Briefly: Western blot of Hsp70 and Hsp90 levels. Format: cell-based, human. To be noted: cells treated 24 h. As for the experimental part:
Because Az-O3-GD promotes caspase activation in leukemia cells, it was anticipated that procaspase-9, procaspase-3 and PARP would be cleaved in treated cells. To test this possibility, HL-60 and K562 cells were exposed to Az-O3-GD, along with Az and GD as controls and western blot analysis was then carried out. […] Although Az-O3-GD upregulates Hsp70, the presence of the Hsp70 inhibitor in this hybrid causes its cytotoxicity against leukemia cells to be higher than that of GD. Finally, we examined the effect of Az-O3-GD on AIF-mediated caspase-independent apoptosis. To this end, HL-60 and K562 cells were incubated with Az-O3-GD for 24 h.
(§2) Western blot analysis. […] peroxidase-conjugated goat anti-rabbit IgG (1:2000, Santa Cruz Bio Technology) and goat anti-mouse IgG (1:2000, Santa Cruz Bio Technology) were used as the secondary antibodies. The blots were developed by using a West-ZOL® plus Western Blot Detection System (Intron Biotechnology Inc., South Korea). Western blot signals were analyzed by using a G:BOX Chemi Fluorescent & Chemiluminescent Imaging System.
In general terms: Immunoblotting shows a protein as a band on a membrane.

For assay [3], the system named is AIF translocation in HL-60 and K562 cells. Briefly: AIF translocation to the nucleus (western blot, immunocytochemistry). To be noted: 24 h; 2 μM for Az-O3-GD. Format: cell-based, human.
Description: Apoptosis-inducing factor (AIF) is known to be translocated from the cytosol to the nucleus during caspase-independent apoptosis (Supplementary Fig. S8b)[39]. In addition, it is also known that Hsp70 interacts with AIF directly and this interacting event results in blocking translocation of AIF to the nucleus and, in turn, prevents caspase-independent apoptosis. Because of these phenomena, we tested if Az has an influence on AIF-mediated caspase-independent apoptosis. To probe this issue, HL-60 and K562 cells were exposed to Az and the levels of AIF in the cytosolic and nuclear fractions were then determined. AIF translocation to the nucleus was not observed in Az-treated cells, based on western blot analysis (Fig. 4d). Additional evidence to support this conclusion was obtained from immunocytochemical analysis of leukemia cells treated with Az (Fig. 4d).
as §2
Immunocytochemistry. […] Cell images were analyzed using the ZEN 2011 software.

Assay [4] deals with HL-60 and K562 cells. Briefly: Flow cytometry, JC-1 mitochondrial membrane potential. Format: cell-based, human. To be noted: 24 h; 10 µM Az or 4 µM Az-O3-GD. How it is done: (§3) To determine whether Az promotes leukemia cell death via apoptosis, acute leukemia HL-60 and chronic leukemia K562 cells were independently incubated with Az. The treated cells were then exposed to a mixed solution of fluorescein-annexin V and propidium iodide (PI) and flow cytometry analysis was conducted. […] The size of the treated cells was also assessed by using flow cytometry. […] We also investigated if the mitochondrial membrane potential in cells treated with Az is disrupted. To test this possibility, HL-60 and K562 cells were exposed to Az and subsequently stained with a membrane potential sensitive JC-1 probe. […] This serves as another evidence for apoptosis induced by Az.
JC-1 staining: HL-60 and K562 cells were treated with each compound and then with 2.5 μg/mL JC-1 (Anaspec) in PBS for 15 min. Flow cytometry was conducted with a BD FACSVerse™ instrument (the red fluorescence signal: λex = 550 nm, λem = 600 nm; the green fluorescence signal: λex = 485 nm, λem = 535 nm) and the data were analyzed using a FlowJo™ software.
On the technique in general: Flow cytometry measures light scatter and fluorescence of single cells or particles in a stream.

In assay [5] the target is T1, interaction of Hsp70 with Apaf-1 in HL-60 and K562 cells (Homo sapiens, UniProt P0DMV8).
T1 construct: endogenous in cells; host or cells: HL-60 and K562 cells
Put plainly: Immunoprecipitation of Hsp70/Apaf-1 complex with Hsp70 antibody. Format: cell-based. To be noted: cells treated 24 h, co-immunoprecipitation. How it is done: With this information in mind, we tested if Az enhances the cytochrome c release from mitochondria into the cytosol in leukemia cells. The levels of cytochrome c in cytosolic and mitochondrial fractions of HL-60 and K562 cells after treatment with Az were determined by using western blot analysis. […] We next determined if the binding of Hsp70 to Apaf-1 is suppressed by Az during apoptosis. For this purpose, HL-60 and K562 cells were exposed to Az, and a complex of Hsp70 and Apaf-1 was then immunoprecipitated with Hsp70 antibody.
Supplementary Figure S9. Az blocks association of Hsp70 with Apaf-1. (a) HL-60 and K562 cells were treated with Az for 24 h, and the amount of Hsp70, Hsc70 and Apaf-1 was measured by western blot. […] (b) HL-60 and K562 cells were treated with Az for 24 h. Immunoprecipitation was performed with a Hsp70 antibody, and the amount of co-precipitated Apaf-1 was determined by western blot.

Assay [6] concerns Ba/F3 cells producing imatinib-resistant mutant Bcr-Abl (T315I). Briefly: MTT assay, Ba/F3 cells producing mutant Bcr-Abl (T315I). Format: cell-based, murine. To be noted: Mus musculus, BaF3, 24 h, read-out: IC50 values, cytotoxicity towards cells expressing mutant Abl. As for the experimental part: Next, the cytotoxic effects of Az on wild-type and mutant Bcr-Abl expressing cells were evaluated.
as §1
Cells were treated with various concentrations of each compound for 24 h. Cell death was measured by using an MTT assay (mean ± s.d., n = 3).
On the technique in general: Formazan colour is commonly taken as a measure of viable cells.

The subject of assay [7] is HL-60 and K562 cells. Briefly: Flow cytometry, fluorescein-annexin V and PI staining. Conditions: 24 h; 10 µM Az, 10 µM GD or 4 µM Az-O3-GD. Format: cell-based, human. As for the experimental part: as §3
HL-60 and K562 cells were incubated with each compound for 24 h in culture media. Cells were re-suspended with 500 μL binding buffer (10 mM HEPES, […] and 2.5 mM CaCl2, pH 7.5) and then incubated with the FITC-annexin V apoptosis detection kit with PI according to the protocol provided by the manufacturer. Flow cytometry was carried out by using a BD FACSVerse™ instrument (BD Biosciences) and the data were analyzed by using a FlowJo™ software (BD Biosciences).

T1 sequence (P0DMV8 whole entry): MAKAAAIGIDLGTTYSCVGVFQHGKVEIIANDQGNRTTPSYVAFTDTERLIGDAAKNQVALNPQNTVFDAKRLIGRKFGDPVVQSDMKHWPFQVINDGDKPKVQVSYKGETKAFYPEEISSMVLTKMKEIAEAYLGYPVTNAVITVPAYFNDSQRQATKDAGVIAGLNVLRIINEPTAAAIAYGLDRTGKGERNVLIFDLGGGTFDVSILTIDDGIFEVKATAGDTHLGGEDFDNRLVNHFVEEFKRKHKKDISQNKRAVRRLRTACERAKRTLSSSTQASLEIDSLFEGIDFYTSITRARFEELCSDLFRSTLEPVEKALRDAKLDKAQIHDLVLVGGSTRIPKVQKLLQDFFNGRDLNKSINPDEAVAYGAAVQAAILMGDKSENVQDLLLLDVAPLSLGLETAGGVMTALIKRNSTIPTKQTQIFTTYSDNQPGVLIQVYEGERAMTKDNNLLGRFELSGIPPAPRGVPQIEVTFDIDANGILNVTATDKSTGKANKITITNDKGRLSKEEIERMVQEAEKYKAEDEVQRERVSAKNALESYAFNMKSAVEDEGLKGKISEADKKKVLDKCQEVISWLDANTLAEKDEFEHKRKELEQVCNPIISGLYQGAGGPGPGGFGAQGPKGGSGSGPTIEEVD

In the case of `COc1ccc(-c2nc(-c3cc(C(F)(F)F)cc(C(F)(F)F)c3)n(Cc3ccc(C(=O)NCCOCCOCCN)cc3)c2-c2ccc(OC)cc2)cc1` [Az, apoptozole], the IC50 in assay [1] was 2 to 5 µM; in assay [6], 2.2 µM. For the same compound, in assay [2], the “translational level of Hsp70” value is “does not affect the translational levels of Hsp70 and Hsp90”. Moreover, the “AIF translocation to the nucleus” value in assay [3] is recorded as “not observed”. Besides, the “mitochondrial membrane potential, JC-1 red fluorescence” value with HL-60 and K562 cells [4] is reported as “reduction of the mitochondrial membrane potential”. The “interaction of Hsp70 with Apaf-1” value in assay [5] is on record as “inhibits the interaction of Hsp70 with Apaf-1”. Also, in the assay on HL-60 and K562 cells [7], the “apoptosis, annexin V binding and PI uptake” value was “positive annexin V binding and positive PI uptake; also recorded: induces apoptosis”.
